Experiment: Evaluation of moisture-heat resistance: turbidity (crystal precipitation) in the transparent resin film
Type: physicochemical
Details: amount of 3.5 parts by mass or more
Experimental: (Evaluation of Moisture-Heat Resistance)
The transparent resin films A-1 to A-14 and B-1 to B-3 were aged for 20 days under moisture heat conditions of a temperature of 85° C. and a humidity of 85%, and the presence or absence of turbidity (crystal precipitation) in the transparent resin film was evaluated according to the following standards.
(Evaluation Standards for Turbidity)
A: Almost no change in appearance such as turbidity due to crystal precipitation is observed.

crystal precipitation | SMILES
caused crystal precipitation | CCCCCCCCCOC(=O)/C(C#N)=C/C=C/N(CC)CC [UV-4]
caused crystal precipitation | CCCCC(CC)COC(=O)/C(C#N)=C\C=C1/CCCN1C (centres unmarked) [UV-5]

— patent publication US20220119688A1, “LAMINATE, LIQUID CRYSTAL DISPLAY DEVICE, AND ORGANIC ELECTROLUMINESCENT DISPLAY DEVICE” (FUJIFILM Corporation, priority 2019, published 2022)
